Experiment [1] addresses T1, recombinant human Wee1A kinase (Homo sapiens, UniProt P30291).
T1 construct: full length Wee1 kinase was expressed by baculovirus in insect cells; purchased Invitrogen PV3817; host or cells: insect cells (baculovirus)
Nature of the experiment: Wee1A kinase binding assay (LanthaScreen Eu time-resolved FRET). The following applies: 30 nM tracer 178, 5 nM Wee1A kinase, 2 nM Eu-labeled antibody; 60 minutes at room temperature; read-out: Wee1A kinase Binding IC50. The method in brief:
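Full-length, baculovirus-expressed GST-tagged Wee1A (5 nM) was mixed with 2 nM Eu-anti-GST antibody, 30 nM kinase tracer 178 and compound (1% DMSO). Buffer was 50 mM HEPES pH 7.5, 10 mM MgCl2, 1 mM EGTA, 0.01% Brij-35, incubated 60 min at room temperature. TR-FRET 665/615 nm emission ratios from duplicates were curve-fitted.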
In general terms: Time-resolved FRET reads energy transfer from a long-lived donor to a nearby acceptor.

Experiment [2] concerns the target T2, Myt1 kinase (recombinant PMYT-1) (Homo sapiens, UniProt Q99640).
T2 construct: full length PMYT-1 was expressed by baculovirus in insect cells; purchased Invitrogen A30984; host or cells: insect cells (baculovirus)
T2 sequence (Q99640 1-499): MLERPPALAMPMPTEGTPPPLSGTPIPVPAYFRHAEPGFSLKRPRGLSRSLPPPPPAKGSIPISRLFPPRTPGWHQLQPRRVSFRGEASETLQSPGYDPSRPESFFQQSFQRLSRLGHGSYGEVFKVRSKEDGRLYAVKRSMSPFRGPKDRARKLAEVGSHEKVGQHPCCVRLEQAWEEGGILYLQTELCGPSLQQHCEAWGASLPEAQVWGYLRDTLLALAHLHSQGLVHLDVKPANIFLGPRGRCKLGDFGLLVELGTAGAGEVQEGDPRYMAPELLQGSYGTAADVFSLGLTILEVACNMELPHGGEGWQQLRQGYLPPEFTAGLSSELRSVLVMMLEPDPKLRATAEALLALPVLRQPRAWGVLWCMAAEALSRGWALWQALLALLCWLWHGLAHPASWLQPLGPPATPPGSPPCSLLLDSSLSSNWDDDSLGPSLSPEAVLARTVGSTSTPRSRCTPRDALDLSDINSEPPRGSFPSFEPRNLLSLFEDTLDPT
Nature of the experiment: Myt1 kinase binding assay (LanthaScreen Eu Kinase Binding Assay). The following applies: 3 nM tracer 178, 2.5 nM PMYT-1, 1 nM Eu-labeled antibody; read-out: Myt1 kinase Binding IC50. The procedure, abridged:
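The binding affinity of compounds for Myt1 kinase was measured with a LanthaScreen Europium (Eu) Kinase Binding Assay, a time-resolved FRET format in which test compounds compete against a labeled kinase tracer, and the results were expressed as IC50 values describing compound binding to Myt1.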

The target in experiment [3] is T3, Wee1A kinase (CDK1 Tyr15 phosphorylation in ACHN renal cell carcinoma cells) (Homo sapiens, UniProt P30291).
T3 construct: pCDK1 Tyr15 immunofluorescence read-out
Nature of the experiment: High-content imaging of pCdk1 Y15, Wee1A kinase target engagement in ACHN cells. In kind it is cell-based. The conditions noted are these: 4 h treatment, nuclear positivity for pCdk1 Y15 vs DMSO control, read-out: CDK1 Tyr15 Phosphorylation EC50. The procedure, abridged: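 ACHN cells exposed to compound for 4 h over 7–5,000 nM or 0.3–200 nM, then fixed and immunostained for pCDK1 Y15 with DAPI nuclear counterstain. The percentage of pCdk1 Y15 nucleus-positive cells relative to DMSO control was imaged per well; EC50 from dose-response curves.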

The next experiment has as its system ACHN cells. Nature of the experiment: Cell Titer Glo viability assay, ACHN cells. In kind it is cell-based. The following applies: Homo sapiens, 144 h, absolute EC50. As for the experimental part: Each of an ACHN renal cell carcinoma cell line (ATCC) and a DAOY medulloblastoma cell line, and an A427 lung cancer line were cultured in Minimum Essential Medium Eagle supplemented with 10% fetal calf serum (Sigma), 1% Penicillin-Streptomycin and 10 mM HEPES buffer (HyClone). Cell cultures were kept in a humidified incubator at 37 °C and 5% CO2. Cells were routinely tested for Mycoplasma contamination.
ACHN cells, DAOY cells, or A427 cells were seeded at a density of 400, 250, or 500 cells per well respectively, in tissue culture treated 384 well plates (Corning Costar). After overnight incubation, cells were treated with drugs at concentrations ranging from 17 to 10 000 nM. Viability compared to untreated control was assessed at 144 h using Cell Titer Glo assay 2.0 (Promega). […] “NT” means the compounds was not tested in the indicated cells.

T3 sequence (P30291 whole entry): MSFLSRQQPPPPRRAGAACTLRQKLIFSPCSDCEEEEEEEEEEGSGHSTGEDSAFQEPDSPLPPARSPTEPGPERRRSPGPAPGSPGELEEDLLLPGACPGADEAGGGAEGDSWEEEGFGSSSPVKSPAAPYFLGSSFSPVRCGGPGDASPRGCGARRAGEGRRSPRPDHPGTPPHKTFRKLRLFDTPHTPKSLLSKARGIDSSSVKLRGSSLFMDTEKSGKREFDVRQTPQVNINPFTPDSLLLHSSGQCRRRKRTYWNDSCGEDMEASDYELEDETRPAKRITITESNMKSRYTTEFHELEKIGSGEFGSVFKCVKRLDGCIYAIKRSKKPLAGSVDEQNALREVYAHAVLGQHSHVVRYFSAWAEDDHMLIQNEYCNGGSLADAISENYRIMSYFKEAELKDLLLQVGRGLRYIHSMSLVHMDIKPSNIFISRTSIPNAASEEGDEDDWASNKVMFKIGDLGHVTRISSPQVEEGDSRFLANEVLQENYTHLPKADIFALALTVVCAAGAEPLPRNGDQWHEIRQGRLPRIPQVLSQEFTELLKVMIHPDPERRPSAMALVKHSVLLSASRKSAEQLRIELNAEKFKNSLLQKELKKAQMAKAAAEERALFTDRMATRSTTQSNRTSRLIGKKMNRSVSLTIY
T1 sequence (P30291 whole entry): as above

As usually defined, the IC50 is the concentration that gives 50% inhibition. Usually EC50 stands for the concentration that produces a half-maximal response. In the case of `C=CCn1c(=O)c2cnc(Nc3cc(C)nc(C)c3)nc2n1-c1cccc(OC2CCN(C)CC2)n1` [Compound 199, 6-[(2,6-dimethylpyridin-4-yl)amino]-1-{6-[(1-methylpiperidin-4-yl)oxy]pyridin-2-yl}-2-(prop-2-en-1-yl)-1H,2H,3H-pyrazolo[3,4-d]pyrimidin-3-one], the values for the IC50 in experiment [1] and in experiment [2] were under 10 nM and 100 to 500 nM, respectively. Further, the EC50 in experiment [3] was under 100 nM; in the experiment with ACHN cells, 100 to 500 nM.
Consider `C=CCn1c(=O)c2cnc(Nc3ccc(F)c(C)c3)nc2n1-c1cccc(NC2CCN(C)CC2)n1` [Compound 140, 2-allyl-6-(4-fluoro-3-toluidino)-1-[6-(1-methyl-4-piperidylamino)-2-pyridyl]-1,2-dihydro-3H-1,2,5,7-tetraazainden-3-one], for which the IC50 was under 10 nM in experiment [1] and 100 to 500 nM in experiment [2]. The EC50 was under 100 nM in experiment [3] and at most 100 nM in the experiment on ACHN cells.
Consider `C=CCn1c(=O)c2cnc(Nc3ccc(OCC(F)(F)F)cc3)nc2n1-c1ccnc(OC2CCNCC2)n1` [Compound 252, 2-allyl-1-(2-(piperidin-4-yloxy)pyrimidin-4-yl)-6-((4-(2,2,2-trifluoroethoxy)phenyl)amino)-1,2-dihydro-3H-pyrazolo[3,4-d]pyrimidin-3-one], for which the IC50 in experiment [1] is under 10 nM; in experiment [2], 20 to 100 nM. In addition, the EC50 in experiment [3] was under 100 nM; in the experiment with ACHN cells it was 100 to 500 nM.
For the molecule `CCn1c(=O)c2cnc(Nc3cccc(C)c3)nc2n1-c1cccc(OC2CCN(C)CC2)n1` [Compound 289, 2-ethyl-1-[6-(1-methyl-4-piperidyloxy)-2-pyridyl]-6-m-toluidino-1,2-dihydro-3H-1,2,5,7-tetraazainden-3-one], the IC50 is under 10 nM in experiment [1] and 100 to 500 nM in experiment [2]. The EC50 in experiment [3] was under 100 nM; with ACHN cells, 100 to 500 nM.
For `C=CCn1c(=O)c2cnc(Nc3ccc(F)cc3)nc2n1-c1cccc(OC2CCCN(C)CC2)n1` (stereo not drawn) [Compound 317, 2-allyl-6-(p-fluorophenylamino)-1-[6-(1-methyl-4-azepanyloxy)-2-pyridyl]-1,2-dihydro-3H-1,2,5,7-tetraazainden-3-one], the results for the IC50 in experiment [1] and in experiment [2] were under 10 nM and 20 to 100 nM, respectively. The EC50 (in experiment [3]; in the experiment on ACHN cells) was 100 to 500 nM throughout.
As for `C=CCn1c(=O)c2cnc(Nc3cccc(C)c3)nc2n1-c1cccc(NC2CCN(C)CC2)n1` [Compound 188, 2-allyl-1-[6-(1-methyl-4-piperidylamino)-2-pyridyl]-6-m-toluidino-1,2-dihydro-3H-1,2,5,7-tetraazainden-3-one], the IC50 in experiment [1] was under 10 nM; in experiment [2], 100 to 500 nM. The EC50 in experiment [3] is under 100 nM; in the experiment with ACHN cells it was at most 100 nM.
As to `CCn1c(=O)c2cnc(Nc3ccc4c(c3)ncn4C)nc2n1-c1cccc(OC2CCNCC2)n1` [Compound 318, 2-ethyl-6-((1-methyl-1H-benzo[d]imidazol-5-yl)amino)-1-(6-(piperidin-4-yloxy)pyridin-2-yl)-1,2-dihydro-3H-pyrazolo[3,4-d]pyrimidin-3-one], the results for the IC50 in experiment [1] and in experiment [2] were under 10 nM and 20 to 100 nM, respectively. Also, the EC50 (in experiment [3]; in the experiment on ACHN cells) was over 1000 nM throughout.
With `C=CCn1c(=O)c2cnc(Nc3ccc(C#N)cc3)nc2n1-c1cccc(OC2CCN(C)CC2)n1` [Compound 301, p-{2-allyl-1-[6-(1-methyl-4-piperidyloxy)-2-pyridyl]-3-oxo-1,2-dihydro-3H-1,2,5,7-tetraazainden-6-ylamino}benzonitrile], the IC50 in experiment [1] is under 10 nM; in experiment [2] it was 20 to 100 nM. The half-maximal effective concentration (EC50) in experiment [3] is under 100 nM; with ACHN cells, at most 100 nM.
For the molecule `C=CCn1c(=O)c2cnc(Nc3cncc(C)c3)nc2n1-c1cccc(OC2CCN(C)CC2)n1` [Compound 292, 1-{6-[(1-methylpiperidin-4-yl)oxy]pyridin-2-yl}-6-[(5-methylpyridin-3-yl)amino]-2-(prop-2-en-1-yl)-1H,2H,3H-pyrazolo[3,4-d]pyrimidin-3-one], the IC50 was under 10 nM in experiment [1] and 20 to 100 nM in experiment [2]. In addition, the EC50 in experiment [3] is under 100 nM; in the experiment on ACHN cells it was at most 100 nM.

Values taken from patent publication US20260364080A1, “PYRAZOLO-PYRIMIDINONE COMPOUNDS FOR USE IN METHODS OF INHIBITING WEE1 A KINASE” (Acrivon Therapeutics, Inc., priority 2023, published 2026).
